Results reported in US6087358A (priority 1997, dated 2000).
≈ marks a conversion by molar mass, not a printed value.

Tested on: Mycobacterium tuberculosis (multidrugresistant strain)
Experiment: microbe, parasite or virus in culture
Format: cell-based
Details: read-out: MIC, column C, 3(S) compounds

## CCCCc1ccc(CO[C@@H]2COc3nc([N+](=O)[O-])cn3C2)cc1 [PA-822]
  MIC: ≤ 0.015 µg/mL

## O=[N+]([O-])c1cn2c(n1)OC[C@@H](OCc1ccc(OC(F)(F)F)cc1)C2 [PA-824, 3S 4-(Trifluromethoxy)benzyloxy-6-nitro-2H-3,4-dihydro-[2-1b]imidazopyran]
  MIC: 0.13 µg/mL (≈ 0.362 µM)

## CC(C)(C)c1ccc(CO[C@@H]2COc3nc([N+](=O)[O-])cn3C2)cc1 [PA-653]
  MIC: ≤ 0.015 µg/mL

## O=[N+]([O-])c1cn2c(n1)OC[C@@H](OCc1ccc(OCc3ccccc3)cc1)C2 [PA-647]
  MIC: ≤ 0.015 µg/mL
